Data on 14 molecules can be found in article PMC7158045 (BMC Plant Biology, 2020).

Common to all, as to test: biochemical
Assay [1] has as its target T1, ZmDRIK1 (DROUGHT RESPONSIVE INACTIVE KINASE 1), kinase domain (Zea mays, UniProt C0P4K9).
T1 construct: gene ZEAMMB73_Zm00001d028770; ZmDRIK1-KD R187-S514 (kinase domain)
T1 sequence (C0P4K9 187-514): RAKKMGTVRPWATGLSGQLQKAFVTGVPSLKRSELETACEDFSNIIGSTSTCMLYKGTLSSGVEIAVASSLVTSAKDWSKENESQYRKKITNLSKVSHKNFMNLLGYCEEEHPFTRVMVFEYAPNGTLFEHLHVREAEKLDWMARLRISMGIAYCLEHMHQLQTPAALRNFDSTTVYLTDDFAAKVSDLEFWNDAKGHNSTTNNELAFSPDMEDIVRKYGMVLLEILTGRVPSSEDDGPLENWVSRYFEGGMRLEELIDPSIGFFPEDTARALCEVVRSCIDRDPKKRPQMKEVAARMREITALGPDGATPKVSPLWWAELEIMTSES
Conditions: read-out: dTm B, sheet ZmDRIK1-R187-S514;; DSF, Boltzmann fit, 0.1% DMSO.

Assay [2] addresses T2, ZmDRIK1-K217-P492 (Zea mays, UniProt C0P4K9).
T2 construct: kinase domain, K217-P492
T2 sequence (C0P4K9 1-514): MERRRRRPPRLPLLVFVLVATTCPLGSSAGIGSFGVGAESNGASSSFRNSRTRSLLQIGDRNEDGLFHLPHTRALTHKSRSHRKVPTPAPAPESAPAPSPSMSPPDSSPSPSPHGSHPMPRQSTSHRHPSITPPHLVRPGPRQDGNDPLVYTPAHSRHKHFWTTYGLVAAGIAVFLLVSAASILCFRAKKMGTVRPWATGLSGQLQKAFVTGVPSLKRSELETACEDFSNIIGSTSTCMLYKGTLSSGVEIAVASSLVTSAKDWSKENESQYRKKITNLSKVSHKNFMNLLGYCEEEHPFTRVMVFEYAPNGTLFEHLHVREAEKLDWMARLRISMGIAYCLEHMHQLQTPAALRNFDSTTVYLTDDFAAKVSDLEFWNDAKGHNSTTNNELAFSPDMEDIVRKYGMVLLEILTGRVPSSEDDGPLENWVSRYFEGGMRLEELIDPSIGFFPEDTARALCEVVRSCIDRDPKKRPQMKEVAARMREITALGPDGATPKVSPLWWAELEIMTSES
The following applies: read-out: dTm B, sheet ZmDRIK1-K217-P492;; DSF, Boltzmann fit, 0.1% DMSO.

The target in assay [3] is T3, ZmDRIK1-R187-P492 (Zea mays, UniProt C0P4K9).
T3 construct: kinase domain, R187-P492
T3 sequence (C0P4K9 1-514): T2 sequence (C0P4K9 1-514)
Conditions: read-out: dTm B, DSF, Boltzmann fit, 0.1% DMSO.

In assay [4] the target is T4, ZmDRIK1-K217-S514 (Zea mays, UniProt C0P4K9).
T4 construct: kinase domain, K217-S514
T4 sequence (C0P4K9 1-514): T2 sequence (C0P4K9 1-514)
The following applies: read-out: dTm B, sheet ZmDRIK1-K217-S514;; DSF, Boltzmann fit, 0.1% DMSO.

Molecules are shown by their SMILES. Counter-ions that a name gives are not always drawn.

On to `CO[C@H]1C[C@@H]2CC[C@@H](C)[C@@](O)(O2)C(=O)C(=O)N2CCCC[C@H]2C(=O)O[C@H]([C@H](C)C[C@@H]2CC[C@H](n3cnnn3)[C@H](OC)C2)CC(=O)[C@H](C)/C=C(\C)[C@@H](O)[C@@H](OC)C(=O)[C@H](C)C[C@H](C)/C=C/C=C/C=C/1C` [Zotarolimus(ABT-578)], for which the ΔTm at 10 µM was -0.396 °C in assay [1], -0.534 °C in assay [2], -0.286 °C in assay [3] and -0.269 °C in assay [4].

As for `COc1cc2ncnc(Nc3cccc(Cl)c3)c2cc1OC` [AG-1478 (Tyrphostin AG-1478)], the ΔTm at 10 µM in assay [1] is -0.676 °C; in assay [2], -0.243 °C; in assay [3] it was -0.424 °C; in assay [4], -0.388 °C.

`Cn1c(=O)c(F)c(Nc2ccc(I)cc2F)c2c(=O)n(C[C@@H](O)CO)cnc21` [TAK-733]: the ΔTm at 10 µM was -0.814 °C in assay [1], -1.32 °C in assay [2], -0.375 °C in assay [3] and -0.514 °C in assay [4].

Consider `CN(C)Cc1cccc(N/C(=C2\C(=O)Nc3cc(C(N)=O)ccc32)c2ccccc2)c1` [BIX 02188], for which the ΔTm at 10 µM in assay [1] is -0.816 °C; in assay [2] it was -0.147 °C; in assay [3], -0.00337 °C; in assay [4] it was -0.0855 °C.

With `CC(C)(C)c1cc(C=C(C#N)C#N)cc(C(C)(C)C)c1O` [Tyrphostin 9], the ΔTm at 10 µM was -0.564 °C in assay [1], -0.298 °C in assay [2], -0.79 °C in assay [3] and -0.346 °C in assay [4].

Consider `Cn1cc(C2=C(c3cn(C4CCN(Cc5ccccn5)CC4)c4ccccc34)C(=O)NC2=O)c2ccccc21` [Enzastaurin (LY317615)], for which the ΔTm at 10 µM is -0.678 °C in assay [1], -1.33 °C in assay [2], -0.261 °C in assay [3] and -0.275 °C in assay [4].

In the case of `Cc1cc(Nc2ncnc3ccc(-c4ccc(CNCCS(C)(=O)=O)o4)cc23)ccc1Oc1ccn2ncnc2c1` [HER2-Inhibitor-1], the ΔTm at 10 µM in assay [1] was -0.782 °C; in assay [2], -0.972 °C; in assay [3], 0.197 °C; in assay [4], 0.102 °C.

Turning to `O=C(Nc1cccc(Nc2ncc(Br)c(NCCc3cnc[nH]3)n2)c1)N1CCCC1` [BX-912], the ΔTm at 10 µM in assay [1] is -0.512 °C; in assay [2] it was -0.986 °C; in assay [3], -0.165 °C; in assay [4] it was -0.277 °C.

With `OCCn1cc(-c2ccc3c(c2)CC/C3=N\O)c(-c2ccncc2)n1` [GDC-0879], the ΔTm at 10 µM in assay [1] is -0.639 °C; in assay [2], -1.04 °C; in assay [3], -0.0449 °C; in assay [4], -0.397 °C.

As to `C#Cc1cccc(Nc2ncnc3cc(OCCOC)c(OCCOC)cc23)c1` [Erlotinib HCl (OSI-744)], the ΔTm at 10 µM was -0.54 °C in assay [1], -1.09 °C in assay [2], -0.278 °C in assay [3] and -0.264 °C in assay [4].

Regarding `Cc1[nH]c(/C=C2\C(=O)Nc3ccccc32)c(C)c1CCC(=O)O` [TSU-68 (SU6668)], the ΔTm at 10 µM is -0.64 °C in assay [1], -1.14 °C in assay [2], -0.199 °C in assay [3] and -0.226 °C in assay [4].

As to `Cc1c(CN2CCN(C(=O)[C@H](C)O)CC2)sc2c(N3CCOCC3)nc(-c3cnc(N)nc3)nc12` [GDC-0980 (RG7422)], the ΔTm at 10 µM is -0.737 °C in assay [1], -1.16 °C in assay [2], -0.177 °C in assay [3] and -0.304 °C in assay [4].

`COc1cc(Nc2ncc3c(n2)-c2ccc(Cl)cc2C(c2c(F)cccc2OC)=NC3)ccc1C(=O)O` [Alisertib (MLN8237)]: the ΔTm at 10 µM is -1.37 °C in assay [1], -1.1 °C in assay [2], -0.494 °C in assay [3] and -0.528 °C in assay [4].

As for `Cn1cc(-c2ccc3nnc(C(F)(F)c4ccc5ncccc5c4)n3n2)cn1` [JNJ-38877605], the ΔTm at 10 µM was -0.758 °C in assay [1], -1 °C in assay [2], -0.343 °C in assay [3] and -0.499 °C in assay [4].
